From US9624242B2, “11-2(2-pyrrolidin-1-yl-ethoxy)-14,19-dioxa-5,7,26-triaza-tetracyclo[19.3.1.1(2,6).1(8,12)]heptacosa-1(25),2(26),3,5,8,10,12(27),16,21,23-decaene citrate salt” (CTI BIOPHARMA CORP., priority 2008, dated 2017)
Counter-ions that a name gives are not always drawn. Like-named read-outs stand apart in the source and are kept apart here.

Tests used:
Type in all cases: physicochemical
[1] = Solid form analysis of salt batches (XRPD, DSC, TGA, GVS)
Excerpt: Initial studies into compound I involved analysis of the hydrochloride salt. It was found as summarised in Table 1 below, that the initially prepared hydrochloride salt produces an inconsistent solid form with significant variability in the DSC, TGA, GVS and XRPD pattern (see FIGS. 1 to 16).
The samples of both hydrochloride (comparative) and citrate salts were subjected to X-ray diffraction to determine the characteristic X-ray diffraction pattern. The conditions used were as follows: X-Ray Powder Diffraction patterns were collected on a Siemens D5000 diffractometer using Cu Kα radiation (40 kV, 40 mA), θ-θ goniometer, divergence of V20 and receiving slits, a graphite secondary monochromator and a scintillation counter. The instrument is performance checked using a certified Corundum standard (NIST 1976).
Samples run under ambient conditions were prepared as flat plate specimens using powder as received. Approximately 35 mg of the sample was gently packed into a cavity cut into polished, zero-background (510) silicon wafer. The sample was rotated in its own plane during analysis. The details of the data collection are: • Angular range: 2 to 42°2θ • Step size: 0.05°2θ • Collection time: 4 s·step^1.
Alternatively, X-Ray Powder Diffraction patterns were collected on a Bruker AXS C2 GADDS diffractometer using Cu Kα radiation (40 kV, 40 mA), automated XYZ stage, laser video microscope for auto-sample positioning and a HiStar 2-dimensional area detector. X-ray optics consists of a single Gabel multilayer mirror coupled with a pinhole collimator of 0.3 mm. The beam divergence, i.e. the effective size of the X-ray beam on the sample, was approximately 4 mm. A θ-θ continuous scan mode was employed with a sample-detector distance of 20 cm which gives an effective 2θ range of 3.2°-29.7°. Typically the sample would be exposed to the X-ray beam for 120 seconds.
Samples run under ambient conditions were prepared as flat plate specimens using powder as received without grinding. Approximately 1-2 mg of the sample was lightly pressed on a glass slide to obtain a flat surface.

[2] = Thermal gravimetric analysis (TGA); settings: for TGA weight loss before degradation / melt with decomposition: result in words
Description: The samples of both hydrochloride (comparative) and citrate salts were subjected to thermal gravimetric analysis and differential scanning calorimetry under the following conditions. DSC data were collected on a TA Instruments Q2000 equipped with a 50 position auto-sampler. The instrument was calibrated for energy and temperature calibration using certified indium. Typically 0.5-3 mg of each sample, in a pin-holed aluminium pan, was heated at 10° C.·min^−1 from 25° C. to 270° C.
TGA data were collected on a TA Instruments Q500 TGA, equipped with a 16 position auto-sampler. The instrument was temperature calibrated using certified Alumel. Typically 5-30 mg of each sample was loaded onto a pre-tared platinum crucible and aluminium DSC pan, and was heated at 10° C.·min^−1 from ambient temperature to 300° C. A nitrogen purge at 60 ml·min^−1 was maintained over the sample. The instrument control software was Thermal Advantage v4.6.6 and the data were analysed using Universal Analysis v4.3A. Alternatively, TGA data were collected on a Mettler TGA/SDTA 851e equipped with a 34 position auto-sampler. The instrument was temperature calibrated using certified indium. Typically 5-30 mg to of each sample was loaded onto a pre-weighed aluminium crucible and was heated at 10° C.·min^−1 from ambient temperature to 300° C. A nitrogen purge at 50 ml·min^−1 was maintained over the sample. The instrument control and data analysis software was STARe v9.01.

[3] = Gravimetric Vapour Sorption (GVS) with post-GVS XRPD; settings: for solid form / XRPD pattern post GVS compared with before: XRPD after GVS experiment; for GVS mass lost on going to dryness: from 90% RH to dryness; for GVS mass gain: from 40% RH to 90% RH
[4] = Variable temperature X-ray diffraction
Description: Samples run under non-ambient conditions were mounted on a silicon wafer with heat-conducting compound. The sample was then heated to the appropriate temperature at ca. 10° C.·min^−1 and subsequently held isothermally for ca 2 minutes before data collection was initiated.
In order to probe the stability of the samples of the citrate salts variable temperature X-ray diffraction was carried out. Thus, the salts were scanned under X-ray diffraction conditions at a series of temperatures and the characteristic peaks determined.

Karl-Fischer analysis = assay: Karl-Fischer analysis
[5] = Stress tests at elevated temperature and humidity, analysed by XRPD
Description: The group three material was stressed under conditions which might cause it is to convert to group one material or, indeed, another hydrated or polymorphic form. Thus samples were stored at 40° C./75% RH and also at 60° C./96% RH and analysed at regular intervals by XRPD.
The stability of the citrate salt group A material was tested in harsher conditions, when the samples were kept for a week in a humidity chamber at 60° C. and 96% RH.

[6] = Maturation of citrate salt in 27 solvents, solids analysed by XRPD
Description: In order to determine the propensity of polymorphism for the citrate salt the group A material was maturated in 27 different solvents. A small amount of solid was slurried with the corresponding solvent (see Table 4 below) and stored in the incubator and subjected to 4 h-heat/cool cycles at 50° C./r.t. for 24 h. The solvents were then removed under vacuum, and the remaining solids analysed by XRPD.

[7] = hydrochloride salt batches, hydrochloride

For `C1=C/COCc2cc(ccc2OCCN2CCCC2)Nc2nccc(n2)-c2cccc(c2)COC/1` [Batch Citrate 1, 11-(2-pyrrolidin-1-yl-ethoxy)-14,19-dioxa-5,7,26-triaza-tetracyclo[19.3.1.1(2,6).1(8,12)]heptacosa-1(25),2(26),3,5,8,10,12(27),16,21,23-decaene], the “Solid Form Comment” value ([1]; citrate salt batches) was “Group A”, the “decomposition / degradation temperature in TGA” value [2] was 180 °C and the “TGA weight loss before degradation / melt with decomposition” value [2] was “no weight loss”. The “solid form / XRPD pattern post GVS compared with before” value [3] was “no change”, the “GVS water taken up” value ([3]; between 0 and 90% RH) was “less than 0.8%” and the hygroscopicity ([3]; result in words) was “low hygroscopicity”. For the same compound, the “change of X-ray diffraction pattern with temperature” value [4] was “no change irrespective of the temperature”.

With `C1=CCOCc2cc(ccc2OCCN2CCCC2)Nc2nccc(n2)-c2cccc(c2)COC1.Cl` [Batch HCl 1, 11-(2-pyrrolidin-1-yl-ethoxy)-14,19-dioxa-5,7,26-triaza-tetracyclo[19.3.1.1(2,6).1(8,12)]heptacosa-1(25),2(26),3,5,8,10,12(27),16,21,23-decaene hydrochloride] the “Solid Form Comment” value [1, 7] was “Group 1 + 3 + amorphous”, the “equivalents of water corresponding to TGA weight loss” value (from here on “equivalents … to TGA weight loss”) ([2]; hydrochloride) was 1.4 equivalents of water and the “TGA two stage weight loss, total” value ([2]; up to 100° C.) was 4.5%. For the same compound, the “GVS adsorption of water in the initial adsorption cycle” value ([3]; at 90% RH) was 5.5%, the “GVS mass lost on going to dryness” value ([3]; hydrochloride) was 5% and the GVS mass regained ([3]; from dryness to 40% RH) was 2%. The GVS total gain ([3]; whole GVS cycle) was 2%.

For `C1=CCOCc2cc(ccc2OCCN2CCCC2)Nc2nccc(n2)-c2cccc(c2)COC1.Cl` [Batch HCl 2, 11-(2-pyrrolidin-1-yl-ethoxy)-14,19-dioxa-5,7,26-triaza-tetracyclo[19.3.1.1(2,6).1(8,12)]heptacosa-1(25),2(26),3,5,8,10,12(27),16,21,23-decaene hydrochloride], the “Solid Form Comment” value [1, 7] was “Predominately Group 1”, the “decomposition / degradation temperature in TGA” value [2] was 260 °C and the “water lost in the first phase of the TGA” value ([2]; hydrochloride) was 5.6%. For the same compound, the “equivalents … to TGA weight loss” value ([2]; hydrochloride) was 1.67 equivalents of water.

In the case of `C1=CCOCc2cc(ccc2OCCN2CCCC2)Nc2nccc(n2)-c2cccc(c2)COC1.Cl` [Batch HCl 3, 11-(2-pyrrolidin-1-yl-ethoxy)-14,19-dioxa-5,7,26-triaza-tetracyclo[19.3.1.1(2,6).1(8,12)]heptacosa-1(25),2(26),3,5,8,10,12(27),16,21,23-decaene hydrochloride], the “Solid Form Comment” value [1, 7] is reported as “Group 1 + 3 + little amorphous”, the “decomposition / degradation temperature in TGA” value [2] is reported as 260 °C and the “total weight lost in the TGA” value [2] is reported as 3.4%. For the same compound, the “another loss in TGA” value ([2]; at 165° C.) was 1.97%, the “water lost in the first phase of the TGA” value ([2]; hydrochloride) was 1.5% and the “equivalents … to TGA weight loss” value ([2]; hydrochloride) was 0.5 equivalents of water. For the same compound, the “equivalents of water by Karl-Fischer analysis” value (Karl-Fischer analysis) was 1.1 equivalents and the “water content by Karl-Fischer analysis” value (Karl-Fischer analysis) was 3.79%.

For `C1=CCOCc2cc(ccc2OCCN2CCCC2)Nc2nccc(n2)-c2cccc(c2)COC1.Cl` [Batch HCl 4, 11-(2-pyrrolidin-1-yl-ethoxy)-14,19-dioxa-5,7,26-triaza-tetracyclo[19.3.1.1(2,6).1(8,12)]heptacosa-1(25),2(26),3,5,8,10,12(27),16,21,23-decaene hydrochloride], the “Solid Form Comment” value [1, 7] was “Group 1”, the TGA mass loss ([2]; between ambient and 108° C.) was 6.5% and the “solid form / XRPD pattern post GVS compared with before” value ([3]; hydrochloride) was “unchanged”. The GVS mass gain [3] was 1.6% and the “GVS mass lost on going to dryness” value ([3]; hydrochloride) was 2.8%.

With `C1=CCOCc2cc(ccc2OCCN2CCCC2)Nc2nccc(n2)-c2cccc(c2)COC1.Cl` [Batch HCl 5, 11-(2-pyrrolidin-1-yl-ethoxy)-14,19-dioxa-5,7,26-triaza-tetracyclo[19.3.1.1(2,6).1(8,12)]heptacosa-1(25),2(26),3,5,8,10,12(27),16,21,23-decaene hydrochloride] the “Solid Form Comment” value [1, 7] was “Group 2”.

In the case of `C1=CCOCc2cc(ccc2OCCN2CCCC2)Nc2nccc(n2)-c2cccc(c2)COC1.Cl` [Batch HCl 6, 11-(2-pyrrolidin-1-yl-ethoxy)-14,19-dioxa-5,7,26-triaza-tetracyclo[19.3.1.1(2,6).1(8,12)]heptacosa-1(25),2(26),3,5,8,10,12(27),16,21,23-decaene hydrochloride], the “Solid Form Comment” value [1, 7] is reported as “Group 3”, the “decomposition / degradation temperature in TGA” value ([2]; hydrochloride) is reported as “around 240 °C” and the “TGA weight loss before degradation / melt with decomposition” value [2] is reported as “very little weight loss”. The “solid form / XRPD pattern post GVS compared with before” value ([3]; hydrochloride) was “unchanged”, the GVS mass gain [3] was 1.6% and the “GVS mass lost on going to dryness” value ([3]; hydrochloride) was 2.4%.

For `C1=C/COCc2cc(ccc2OCCN2CCCC2)Nc2nccc(n2)-c2cccc(c2)COC/1` [citrate salt group A material, 11-(2-pyrrolidin-1-yl-ethoxy)-14,19-dioxa-5,7,26-triaza-tetracyclo[19.3.1.1(2,6).1(8,12)]heptacosa-1(25),2(26),3,5,8,10,12(27),16,21,23-decaene], the “change of crystalline pattern (XRPD) after stress” value ([5]; one week in humidity chamber at 60° C. and 96% RH) was “no changes are observed”, the “Solid Form after maturation” value ([6]; 1,4-dioxane) was “Form A” and the “Solid Form after maturation” value ([6]; 1-butanol) was “Form A”. The “Solid Form after maturation” value ([6]; 1-pentanol) was “Form A”, the “Solid Form after maturation” value ([6]; 1-propanol) was “Form A” and the “Solid Form after maturation” value ([6]; 2-butanol) was “Form A”. For the same compound, the “Solid Form after maturation” value ([6]; 2-methoxy ethanol) was “Form A”, the “Solid Form after maturation” value ([6]; 3-methyl-1-butanol) was “Form A” and the “solid forms identified after maturation” value ([6]; 27 different solvents, 4 h heat/cool cycles 50° C./r.t. for 24 h) was “only one solid form”. For the same compound, the “Solid Form after maturation” value ([6]; Acetonitrile) was “Form A”, the “Solid Form after maturation” value ([6]; Cyclohexane) was “Form A” and the “Solid Form after maturation” value ([6]; DMSO) was “Form A”. The “Solid Form after maturation” value ([6]; Dicloro-methane) was “Form A”, the “Solid Form after maturation” value ([6]; Ethanol) was “Form A” and the “Solid Form after maturation” value ([6]; Ethyl acetate) was “Form A”. For the same compound, the “Solid Form after maturation” value ([6]; Heptane) was “Form A”, the “Solid Form after maturation” value ([6]; IPA) was “Form A” and the “Solid Form after maturation” value ([6]; Isobutyl acetate) was “Form A”. For the same compound, the “Solid Form after maturation” value ([6]; Isopropyl acetate) was “Form A”, the “Solid Form after maturation” value ([6]; Methyl isobutyl ketone) was “Form A” and the “Solid Form after maturation” value ([6]; Methylethyl ketone) was “Form A”. The “Solid Form after maturation” value ([6]; Nitromethane) was “Form A”, the “Solid Form after maturation” value ([6]; Propyl acetate) was “Form A” and the “Solid Form after maturation” value ([6]; TBME) was “Form A”. For the same compound, the “Solid Form after maturation” value ([6]; Tetrahydro furan) was “Form A”, the “Solid Form after maturation” value ([6]; Toluene) was “Form A” and the “Solid Form after maturation” value ([6]; Water) was “Form A”. For the same compound, the “Solid Form after maturation” value ([6]; acetone) was “Form A” and the “Solid Form after maturation” value ([6]; methanol) was “Form A”.

For `C1=CCOCc2cc(ccc2OCCN2CCCC2)Nc2nccc(n2)-c2cccc(c2)COC1.Cl` [group 3 hydrochloride, 11-(2-pyrrolidin-1-yl-ethoxy)-14,19-dioxa-5,7,26-triaza-tetracyclo[19.3.1.1(2,6).1(8,12)]heptacosa-1(25),2(26),3,5,8,10,12(27),16,21,23-decaene hydrochloride], the “solid form by XRPD after stress (Comment)” value (shortened to “solid form by XRPD”) ([5]; 40° C./75% RH, 0 hrs) was “Group three”, the “solid form by XRPD” value ([5]; 40° C./75% RH, 24 hrs) was “Group three” and the “solid form by XRPD” value ([5]; 40° C./75% RH, 48 hrs) was “Group three”. For the same compound, the “solid form by XRPD” value ([5]; 40° C./75% RH, 72 hrs) was “Group one”, the “solid form by XRPD” value ([5]; 60° C./96% RH, 0 hrs) was “Group three” and the “solid form by XRPD” value ([5]; 60° C./96% RH, 24 hrs) was “Group one”.
